These results are taken from patent publication US20260022103A1, “PRAMIPEXOLE XINAFOATE AND SUSTAINED-RELEASE PHARMACEUTICAL FORMULATION THEREOF” (JEWIM PHARMACEUTICAL (SHANDONG) CO., LTD., priority 2022, published 2026).

Structures can show the parent of a compound that is named as a salt. Where two headings read alike, the source gives them in different places.

One data set concerns the target dopamine D2 receptor (Homo sapiens, UniProt P14416). As to conditions: cited from earlier work.
For data set [1] the following is noted: for Saturation concentration: 48 h. Here is the method: The concentrations of the pramipexole salts in different media for saturation at 48 h were determined by a shake flask dissolution method at 37° C.
The nature of data set [2]: Pharmacokinetics of different pramipexole salt suspension injections in rats. It counts as in vivo. As to conditions: subcutaneous suspension injection. The protocol:
18 adult rats, including 12 males and 6 females (non-perilactation period), were selected and divided into three groups with 6 rats each group (a ratio of males to females of 2:1), and subcutaneously administered with 2 ml of the suspension injections of Examples 3-5 respectively. The main pharmacokinetic parameters of each of test animals were determined: the time to peak, the maximal blood drug level and AUC0-t.

[3] abbreviates: Phosphate buffer at pH 6.8, 37° C.
Setting [4] is: Phosphate buffer at pH 7.4, 37° C.

Chain of dopamine D2 receptor (P14416 whole entry, species assumed): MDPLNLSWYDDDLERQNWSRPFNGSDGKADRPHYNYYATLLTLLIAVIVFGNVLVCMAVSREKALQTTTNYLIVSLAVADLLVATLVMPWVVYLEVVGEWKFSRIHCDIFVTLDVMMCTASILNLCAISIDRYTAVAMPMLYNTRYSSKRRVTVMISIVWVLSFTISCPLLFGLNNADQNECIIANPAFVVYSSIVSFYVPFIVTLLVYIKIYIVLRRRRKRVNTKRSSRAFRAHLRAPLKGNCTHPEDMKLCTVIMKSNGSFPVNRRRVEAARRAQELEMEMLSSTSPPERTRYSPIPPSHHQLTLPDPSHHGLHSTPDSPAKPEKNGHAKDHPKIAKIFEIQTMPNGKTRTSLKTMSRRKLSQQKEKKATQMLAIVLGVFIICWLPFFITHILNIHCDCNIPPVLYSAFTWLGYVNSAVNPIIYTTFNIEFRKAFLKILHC

Regarding `CCCN[C@H]1CCc2nc(N)sc2C1` [S(−) isomer, (S)-(−)-2-amino-6-(propylamino)-4,5,6,7-tetrahydrobenzothiazole], the “Affinity to dopamine D2 receptor relative to the R(+) isomer” value on dopamine D2 receptor (ratio versus R(+) isomer) was 8-10 times. For the same molecule, at dopamine D2 receptor (ratio versus racemate), the “Affinity to dopamine D2 receptor relative to the racemate” value is 2 times.
As to `CCCN[C@H]1CCc2nc(N)sc2C1.O=C(O)c1ccccc1` [pramipexole benzoate], the Saturation concentration in data set [1] (0.9% NaCl, 37° C.) is 325.91 µg/mL; in data set [1] (setting [3]) it was 392.11 µg/mL; in data set [1] (setting [4]), 427.37 µg/mL; in data set [1] (Water for injection, 37° C.), 292.72 µg/mL.
In the case of `CCCN[C@H]1CCc2nc(N)sc2C1` [pramipexole hydrochloride, Pramipexole hydrochloride], the Saturation concentration in data set [1] (0.9% NaCl, 37° C., hydrochloride) came out at 1207.41 µg/mL; in data set [1] (Phosphate buffer at pH 6.8, 37° C., hydrochloride) it was 1249.45 µg/mL; in data set [1] (Phosphate buffer at pH 7.4, 37° C., hydrochloride), 1363.53 µg/mL; in data set [1] (Water for injection, 37° C., hydrochloride), 1187.36 µg/mL.
For the molecule `CCCN[C@H]1CCc2nc(N)sc2C1` [pramipexole xinafoate], the Saturation concentration is 1.05 µg/mL in data set [1] (0.9% NaCl, 37° C.); 2.64 µg/mL in data set [1] (setting [3]); 4.66 µg/mL in data set [1] (setting [4]); 0.78 µg/mL in data set [1] (Water for injection, 37° C.). Besides, the “Solubility compared with the other salts” value in data set [1] (summary of Table 1) was “significantly decreased”. For the same molecule, the “Duration of sustained release” value in data set [2] is recorded as “up to 35 days”.
In the case of pramipexole pamoate, the Saturation concentration in data set [1] (0.9% NaCl, 37° C.) was found to be 227.63 µg/mL; in data set [1] (setting [3]), 275.34 µg/mL; in data set [1] (setting [4]) it was 345.29 µg/mL; in data set [1] (Water for injection, 37° C.), 189.25 µg/mL.
